# Results taken from PMC8865862 (Journal of Inflammation Research, 2022).
# Molecular target: Caspase 1 (CASP1) (Homo sapiens, UniProt P29466)
# Experiment: live-cell GFP caspase-1
# Format: cell-based
# Sequence of Caspase 1 (CASP1) (P29466 whole entry): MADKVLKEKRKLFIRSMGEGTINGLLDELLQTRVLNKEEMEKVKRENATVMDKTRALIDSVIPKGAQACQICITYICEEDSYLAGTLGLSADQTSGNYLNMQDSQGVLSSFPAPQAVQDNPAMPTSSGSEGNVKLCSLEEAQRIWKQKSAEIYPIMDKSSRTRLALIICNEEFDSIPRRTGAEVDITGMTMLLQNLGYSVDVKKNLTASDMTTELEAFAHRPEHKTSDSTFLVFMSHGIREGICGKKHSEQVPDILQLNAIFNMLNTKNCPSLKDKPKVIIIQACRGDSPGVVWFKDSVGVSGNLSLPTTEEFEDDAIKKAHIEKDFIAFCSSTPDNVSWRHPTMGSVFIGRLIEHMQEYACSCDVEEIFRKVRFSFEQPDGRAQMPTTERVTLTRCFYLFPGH
# Sequence of Caspase 1 (CASP1) (Q96P20 whole entry R262W partner): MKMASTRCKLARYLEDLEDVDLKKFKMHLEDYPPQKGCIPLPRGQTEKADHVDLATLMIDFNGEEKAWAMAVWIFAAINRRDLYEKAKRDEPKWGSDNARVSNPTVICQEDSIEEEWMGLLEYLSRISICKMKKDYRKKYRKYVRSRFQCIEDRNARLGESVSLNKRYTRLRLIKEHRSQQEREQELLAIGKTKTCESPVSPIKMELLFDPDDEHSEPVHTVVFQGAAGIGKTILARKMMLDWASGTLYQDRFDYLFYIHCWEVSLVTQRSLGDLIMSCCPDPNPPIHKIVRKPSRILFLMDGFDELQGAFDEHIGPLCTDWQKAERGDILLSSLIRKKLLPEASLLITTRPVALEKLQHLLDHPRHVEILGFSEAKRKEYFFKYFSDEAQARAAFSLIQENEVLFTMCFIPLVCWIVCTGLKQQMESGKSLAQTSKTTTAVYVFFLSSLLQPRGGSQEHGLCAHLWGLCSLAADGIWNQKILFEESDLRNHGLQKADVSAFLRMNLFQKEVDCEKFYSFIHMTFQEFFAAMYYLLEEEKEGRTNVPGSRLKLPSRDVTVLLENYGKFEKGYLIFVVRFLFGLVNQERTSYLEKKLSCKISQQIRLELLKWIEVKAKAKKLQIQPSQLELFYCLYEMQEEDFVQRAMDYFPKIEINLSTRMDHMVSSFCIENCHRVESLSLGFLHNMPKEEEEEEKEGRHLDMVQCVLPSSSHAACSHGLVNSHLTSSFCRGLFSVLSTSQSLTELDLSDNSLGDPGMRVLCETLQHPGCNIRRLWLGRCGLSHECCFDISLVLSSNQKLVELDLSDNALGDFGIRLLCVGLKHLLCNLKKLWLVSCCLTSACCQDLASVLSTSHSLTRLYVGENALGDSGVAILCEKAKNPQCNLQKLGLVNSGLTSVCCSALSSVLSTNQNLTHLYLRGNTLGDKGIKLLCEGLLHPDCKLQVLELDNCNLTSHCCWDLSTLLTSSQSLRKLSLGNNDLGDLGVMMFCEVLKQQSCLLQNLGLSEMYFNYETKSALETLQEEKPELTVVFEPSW
# Sequence of Caspase 1 (CASP1) (Q9ULZ3 whole entry partner): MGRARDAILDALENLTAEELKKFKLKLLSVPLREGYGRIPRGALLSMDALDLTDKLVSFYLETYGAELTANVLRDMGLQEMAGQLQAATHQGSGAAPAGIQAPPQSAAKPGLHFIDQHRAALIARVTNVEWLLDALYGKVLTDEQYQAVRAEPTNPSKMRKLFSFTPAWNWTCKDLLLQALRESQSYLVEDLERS
compound,measurement,value
CC(C)(C)[C@H](NC(=O)c1ccc(N)c(Cl)c1)C(=O)N1CCC[C@H]1C(=O)N[C@H](C=O)CC(=O)O [VRT-043198],IC50,4.66 µM
